Measured values taken from PubChem BioAssay (NCI).
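Five compound concentrations were applied to cells in 96-well plates for 48 hours; endpoints were derived by simple linear interpolation of the resulting dose-response curve. TGI: concentration producing complete growth inhibition.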

Assays:
Assay in all cases: NCI anticancer screen, dose series, 48 h
SF-295 CNS = tested on: SF-295 CNS
BT-549 breast = tested on: BT-549 breast
MDA-MB-231 breast = tested on: MDA-MB-231 breast
KM12 colon = tested on: KM12 colon
T-47D breast = tested on: T-47D breast
RPMI-8226 leukemia = tested on: RPMI-8226 leukemia
HL-60(TB) leukemia = tested on: HL-60(TB) leukemia
PC-3 prostate = tested on: PC-3 prostate
OVCAR-8 ovarian = tested on: OVCAR-8 ovarian
U251 CNS = tested on: U251 CNS
SW-620 colon = tested on: SW-620 colon
NCI-H23 lung = tested on: NCI-H23 lung
NCI-H460 lung = tested on: NCI-H460 lung
HCT-15 colon = tested on: HCT-15 colon
SK-MEL-5 melanoma = tested on: SK-MEL-5 melanoma
MDA-N = tested on: MDA-N
IGROV1 ovarian = tested on: IGROV1 ovarian
HCT-116 colon = tested on: HCT-116 colon
HT29 colon = tested on: HT29 colon
SK-OV-3 ovarian = tested on: SK-OV-3 ovarian
EKVX NSCLC = tested on: EKVX NSCLC
K-562 leukemia = tested on: K-562 leukemia
NCI/ADR-RES ovarian = tested on: NCI/ADR-RES ovarian
HOP-92 NSCLC = tested on: HOP-92 NSCLC
SR leukemia = tested on: SR leukemia
SN12C renal = tested on: SN12C renal
OVCAR-3 ovarian = tested on: OVCAR-3 ovarian
MDA-MB-435 = tested on: MDA-MB-435
A498 renal = tested on: A498 renal
LOX IMVI melanoma = tested on: LOX IMVI melanoma
CAKI-1 renal = tested on: CAKI-1 renal
HOP-62 NSCLC = tested on: HOP-62 NSCLC
UACC-62 melanoma = tested on: UACC-62 melanoma
786-0 renal = tested on: 786-0 renal
COLO 205 colon = tested on: COLO 205 colon
UACC-257 melanoma = tested on: UACC-257 melanoma
TK-10 renal = tested on: TK-10 renal
SK-MEL-2 melanoma = tested on: SK-MEL-2 melanoma
NCI-H226 lung = tested on: NCI-H226 lung
SK-MEL-28 melanoma = tested on: SK-MEL-28 melanoma
OVCAR-5 ovarian = tested on: OVCAR-5 ovarian
UO-31 renal = tested on: UO-31 renal
ACHN renal = tested on: ACHN renal
SNB-19 CNS = tested on: SNB-19 CNS
CCRF-CEM leukemia = tested on: CCRF-CEM leukemia
MOLT-4 leukemia = tested on: MOLT-4 leukemia
A549 NSCLC = tested on: A549 NSCLC
SF-268 CNS = tested on: SF-268 CNS
SF-539 CNS = tested on: SF-539 CNS
M14 melanoma = tested on: M14 melanoma
DU-145 prostate = tested on: DU-145 prostate
SNB-75 CNS = tested on: SNB-75 CNS
MCF7 breast = tested on: MCF7 breast
HS 578T breast = tested on: HS 578T breast

Measured: TGI

CC(=O)/C(N=Nc1ccc(-n2c(C)nc3ccccc3c2=O)cc1)=C(/C)O
> 100 µM: SF-295 CNS | BT-549 breast | MDA-MB-231 breast | KM12 colon | T-47D breast | RPMI-8226 leukemia | HL-60(TB) leukemia | PC-3 prostate | OVCAR-8 ovarian | U251 CNS | SW-620 colon | NCI-H23 lung | NCI-H460 lung | HCT-15 colon | SK-MEL-5 melanoma | MDA-N | IGROV1 ovarian | HCT-116 colon | HT29 colon | SK-OV-3 ovarian | EKVX NSCLC | K-562 leukemia | NCI/ADR-RES ovarian | HOP-92 NSCLC | SR leukemia | SN12C renal | OVCAR-3 ovarian | MDA-MB-435 | A498 renal | LOX IMVI melanoma | CAKI-1 renal | HOP-62 NSCLC | UACC-62 melanoma | 786-0 renal | COLO 205 colon | UACC-257 melanoma | TK-10 renal | SK-MEL-2 melanoma | NCI-H226 lung | SK-MEL-28 melanoma | OVCAR-5 ovarian | UO-31 renal | ACHN renal | SNB-19 CNS | CCRF-CEM leukemia | MOLT-4 leukemia | A549 NSCLC | SF-268 CNS | SF-539 CNS | M14 melanoma | DU-145 prostate | SNB-75 CNS | MCF7 breast | HS 578T breast
